Experiments:
Type in all cases: functional, cell-based
[1] = test system: HepG2; experiment: Cytotoxicity against human HepG2 cells after 72 hrs by MTT assay; conditions: HepG2, 72 h
[2] = test system: MCF7; experiment: Cytotoxicity against human MCF7 cells after 72 hrs by MTT assay; conditions: MCF7, 72 h
[3] = test system: HT-29; experiment: Cytotoxicity against human HT-29 cells after 72 hrs by MTT assay; conditions: HT-29, 72 h
[4] = test system: MKN-28; experiment: Cytotoxicity against human MKN28 cells after 72 hrs by MTT assay; conditions: MKN-28, 72 h

Compound: C/C=C/C(=O)O[C@H]1[C@H](O[C@H]2CC[C@]34C[C@]35CC[C@]3(C)[C@H]6[C@H](C)C[C@H]7O[C@@]6(C[C@@H]7C(C)(C)OC(C)=O)[C@H](O)[C@@]3(C)[C@@H]5CC[C@H]4C2(C)C)OC[C@@H](O)[C@@H]1O
- IC50 [1]: 6.37 µM
- IC50 [2]: > 100 µM
- IC50 [3]: 78.5 µM
- IC50 [4]: 53.8 µM

Compound: CC(=O)O[C@@H]1[C@@H](O)[C@H](O[C@H]2CC[C@]34C[C@]35C[C@@H](OC(C)=O)[C@]3(C)[C@H]6[C@H](C)C[C@@]7(CC[C@]8(C)O[C@H]78)O[C@H]6C[C@@]3(C)[C@@H]5CC[C@H]4C2(C)C)OC[C@H]1O
- IC50 [1]: 1.41 µM
- IC50 [2]: > 100 µM
- IC50 [3]: 35.7 µM
- IC50 [4]: > 100 µM

Compound: CC(=O)O[C@@H]1C[C@@]23C[C@@]24CC[C@H](O)C(C)(C)[C@@H]4CC[C@H]3[C@]2(C)[C@@H](O)[C@@]34C[C@H](C(C)(C)O)[C@@H](C[C@@H](C)[C@@H]3[C@@]12C)O4
- IC50 [1]: 43.1 µM
- IC50 [2]: > 100 µM
- IC50 [3]: > 100 µM
- IC50 [4]: > 100 µM

Compound: CC(=O)O[C@@H]1CO[C@@H](O[C@H]2CC[C@]34C[C@]35CC[C@]3(C)[C@H]6[C@H](C)C[C@H]7O[C@@]6(C[C@@H]7C(C)(C)OC(C)=O)[C@H](O)[C@@]3(C)[C@@H]5CC[C@H]4C2(C)C)[C@H](O)[C@H]1O
- IC50 [1]: 2.8 µM
- IC50 [2]: > 100 µM
- IC50 [3]: 26.1 µM
- IC50 [4]: > 100 µM

Compound: C[C@@H]1C[C@H]2O[C@@]3(C[C@@H]2C(C)(C)O)[C@H](O)[C@@]2(C)[C@@H]4CC[C@H]5C(C)(C)C(=O)CC[C@@]56C[C@@]46CC[C@]2(C)[C@@H]13
- IC50 [1]: 5.51 µM
- IC50 [2]: > 100 µM
- IC50 [3]: 15.4 µM
- IC50 [4]: 72 µM

Compound: CC(=O)O[C@@H]1[C@@H](O)[C@H](O[C@H]2CC[C@]34C[C@]35CC[C@]3(C)[C@H]6[C@H](C)C[C@H]7O[C@@]6(C[C@@H]7C(C)(C)OC(C)=O)[C@H](O)[C@@]3(C)[C@@H]5CC[C@H]4C2(C)C)OC[C@H]1O
- IC50 [1]: 0.71 µM
- IC50 [2]: > 100 µM
- IC50 [3]: 28.9 µM
- IC50 [4]: > 100 µM

Compound: CC(=O)OC(C)(C)[C@H]1C[C@@]23O[C@@H]1C[C@@H](C)[C@@H]2[C@@]1(C)CC[C@@]24C[C@@]25CC[C@H](O)C(C)(C)[C@@H]5CC[C@H]4[C@]1(C)[C@H]3O
- IC50 [1]: 20.3 µM
- IC50 [2]: > 100 µM
- IC50 [3]: > 100 µM
- IC50 [4]: > 100 µM

Compound: CC(=O)O[C@@H]1C[C@@]23C[C@@]24CC[C@H](O)C(C)(C)[C@@H]4CC[C@H]3[C@]2(C)C[C@@H]3O[C@@]4(CC[C@@]5(C)O[C@@H]45)C[C@@H](C)[C@@H]3[C@@]12C
- IC50 [1]: 27.7 µM
- IC50 [2]: > 100 µM
- IC50 [3]: 35.4 µM
- IC50 [4]: 82.2 µM

Compound: CC(=O)O[C@@H]1[C@@H](O)[C@H](O[C@H]2CC[C@]34C[C@]35C[C@@H](OC(C)=O)[C@]3(C)[C@H]6[C@H](C)C[C@]7(C[C@H](O)[C@@]8(C)O[C@@H]78)O[C@H]6C[C@@]3(C)[C@@H]5CC[C@H]4C2(C)C)OC[C@H]1O
- IC50 [1]: 32.1 µM
- IC50 [2]: > 100 µM
- IC50 [3]: 50.1 µM
- IC50 [4]: 53.4 µM

Compound: CC(=O)O[C@@H]1C[C@@]23C[C@@]24CC[C@H](O)C(C)(C)[C@@H]4CC[C@H]3[C@]2(C)C[C@@H]3O[C@]4(C[C@@H](C)[C@@H]3[C@@]12C)C[C@H](O)[C@@]1(C)O[C@@H]41 [ACTEINOL]
- IC50 [1]: 2.56 µM
- IC50 [2]: > 100 µM
- IC50 [3]: > 100 µM
- IC50 [4]: > 100 µM

Compound: CC(=O)O[C@@H]1C[C@@]23C[C@@]24CC[C@H](O[C@@H]2OC[C@@H](O)[C@H](O)[C@H]2O)C(C)(C)[C@@H]4CC[C@H]3[C@]2(C)C[C@@H]3OC(C(=O)C(C)C)=C[C@@H](C)[C@@H]3[C@@]12C [ASIATICOSIDE A]
- IC50 [1]: 4.02 µM
- IC50 [2]: > 100 µM
- IC50 [3]: 49.4 µM
- IC50 [4]: 54.8 µM

Compound: CC(C)(O)[C@@H]1Cc2c(cc3oc(CO)cc(=O)c3c2O)O1 [NORCIMIFUGIN]
- IC50 [1]: 5.55 µM
- IC50 [2]: > 100 µM
- IC50 [3]: > 100 µM
- IC50 [4]: > 100 µM

Compound: C[C@@H]1C[C@H]2O[C@@]3(C[C@@H]2C(C)(C)O)[C@H](O)[C@@]2(C)[C@@H]4CC[C@H]5C(C)(C)[C@@H](O[C@@H]6OC[C@H](O)[C@H](O)[C@H]6O)CC[C@@]56C[C@@]46CC[C@]2(C)[C@@H]13
- IC50 [1]: 20.4 µM
- IC50 [2]: > 100 µM
- IC50 [3]: > 100 µM
- IC50 [4]: > 100 µM

Compound: CC(=O)O[C@@H]1C[C@@]23C[C@@]24CC[C@H](O[C@@H]2OC[C@@H](O)[C@H](O)[C@H]2O)C(C)(C)[C@@H]4CC[C@H]3[C@]2(C)[C@@H](O)[C@@]34C[C@H](C(C)(C)OC(C)=O)[C@@H](C[C@@H](C)[C@@H]3[C@@]12C)O4
- IC50 [1]: > 100 µM
- IC50 [2]: 47.5 µM
- IC50 [3]: > 100 µM
- IC50 [4]: > 100 µM

Compound: C/C=C/C(=O)O[C@@H]1CO[C@@H](O[C@H]2CC[C@]34C[C@]35CC[C@]3(C)[C@H]6[C@H](C)C[C@H]7O[C@@]6(C[C@@H]7C(C)(C)OC(C)=O)[C@H](O)[C@@]3(C)[C@@H]5CC[C@H]4C2(C)C)[C@H](O)[C@H]1O
- IC50 [1]: 1.29 µM
- IC50 [2]: > 100 µM
- IC50 [3]: > 100 µM
- IC50 [4]: > 100 µM
